Data on one compound can be found in patent US10359430B2, “Selective near-infrared optical imaging of necrotic cells and simultaneous cell fixing and counter staining with metallacrown complexes” (THE REGENTS OF THE UNIVERSITY OF MICHIGAN, priority 2015, dated 2019).

In data set [1] the test system is HeLa cells. The experiment in a line: Raman spectroscopy of fixed HeLa cells. The class given is cell-based, Human. Conditions: cells stained and fixed as in Example 1. As to the method:
Raman spectroscopy maps were collected for living HeLa cells, HeLa cells that were fixed with paraformaldehyde (PFA), HeLa cells that were fixed with methanol (MeOH), and HeLa cells that were stained and fixed with Yb^3+[Zn(II)MCpyzHA] using the example method disclosed herein (as described in Example 1).
Cells were seeded in an 8-well Lab Tek Chamber coverglass, as previously described in Example 1. Cells were washed trice with OPTI-MEM® (room temperature) and incubated with 4% PFA solution in PBS (Phosphate Buffered Saline) for 30 minutes at room temperature. […]
To study the changes between the different samples, a background subtraction was applied and the signal was collected in the range of 0-4000 cm^−1 in different cellular structures, cytoplasm and nucleus, allowing to observe the variations of specific vibrations arising from the nucleic acids and proteins, in particular, the CH vibrational bands at 2800-3300 cm^−1 that reflect a distribution of proteins, lipids and carbohydrates in cells and often used to localize cellular organelles, as well as OH band in the range of 3100-3650 cm^−1. […] However, a more detailed analysis of Raman signal is required to fully quantify and identify corresponding peaks in order to completely understand changes in the biomolecular profile observed for the fixation with Yb^3+[Zn(II)MCpyzHA].

In another data set the test system is MSC stem cells. Conditions: 150 μM, 15 minutes, UV light (377 nm) 8 minutes, further 1 hour; λex 458 nm, λem 499-799 nm. As to the method:
For these confocal microscopy experiments, the HeLa or MSC cells were prepared in the same way as for the epifluorescence microscopy experiments (see Example 1, Short incubation, UV light exposure #1 and #3). […] Complexes were excited with Argon laser at 458 nm and emission signal was collected from 499 nm to 799 nm. During this experiment, a 63× Plan-Apochromat objective was used (2× zoom).

Data set [2] relates to HeLa cells. The experiment in a line: NIR epifluorescence microscopy of HeLa cells (necrotic cell labelling, simultaneous staining and fixing). In kind it is cell-based, Human. The conditions noted are these: for Colocalization with propidium iodide: then 3 μM PI 5 minutes.
Data set [3] has as its system MSC (Mesenchymal Stem Cells). The conditions noted are these: 150 μM, 15 minutes, UV light (377 nm) 8 minutes, further 1 hour.
Experimental: The MSC (Mesenchyml Stem Cells) cell line was obtained from University in Orleans, 13MTO Laboratory (Orleans, France). The as-received MSC cell line has been obtained from the bone marrow of rats. The MSC cell line was cultured in Minimum Essential Medium (MEM) supplemented with 10% heat-inactivated fetal bovine serum (FBS), 1% of L-glutamine (GlutaMAX) and 1% of streptomycin/penicillin antibiotics. The MSC were also seeded in a similar manner to the HeLa cells.
After 24 hours, the respective cell culture media was removed and the HeLa cells or MSC were incubated with the Yb^3+[Zn(II)MCpyzHA] complex according to one of the following procedures.
The MSC cells were incubated with a solution of 150 μM Yb^3+[Zn(II)MCpyzHA] complex in OPTI-MEM® media (supplemented with 2% of FBS at 37° C. in 5% CO2 atmosphere) for 15 minutes, illuminated with UV light (377 nm) for 8 minutes, and then were allowed to continue incubating for 1 hour.
Prior to epifluorescent imaging, the HeLa and the MSC cells were washed twice with OPTI-MEM® (room temperature) in order to remove any non-specifically bound Yb^3+[Zn(II)MCpyzHA] complex.
The test system of data set [4] is HeLa cells. The experiment in a line: NIR epifluorescence microscopy of HeLa cells (necrotic cell labelling, simultaneous staining and fixing). In kind it is cell-based, Human. The conditions noted are these: 150 μM complex and 3 μM propidium iodide together, UV light (377 nm) 5 minutes. Here is the method:
Cells were seeded in a 8-well Lab Tek Chamber coverglass (Nunc, Dutsher S.A., Brumath, France) at a density of 6×10^4 cells/well and cultured at 37° C. in 5% humidified CO2 atmosphere.
The continued incubation enabled the internalization of the complexes.
All of the previously mentioned incubated HeLa cells were then washed with fresh OPTI-MEM® media and were incubated with 3 μM propidium iodide for 5 minutes. Propidium iodide is a commercially available stain (emitting in the visible range) for necrotic cells, and was used to confirm cell necrosis.
i. 377 nm with 50 nm band-pass filter with 50 nm bandwidth for the excitation and 805 nm long-pass filter 805 nm or 996 nm band-pass filter with 70 nm bandwidth for YbIII emission in the NIR range.
ii. […] for the excitation and 805 nm long-pass filter 805 nm or 996 nm band-pass filter with 70 nm bandwidth for YbIII emission in the NIR range. […]

Data set [5] can be described thus: Photostability stress tests. In kind it is physicochemical. Conditions: 150 μM in water and OPTI-MEM media, 5 hours of irradiation with 377 nm light. Here is the method:
Photostability stress tests of Yb^3+[Zn(II)MCpyzHA] (Yb λem=980 nm) and Nd^3+[Zn(II)MCpyzHA] (Nd λem=1064 nm) and the commercially available dye for necrotic cells (Propidium Iodide) were performed. The complexes (150 μM) or dye (50 μM) were dissolved in water and the complexes were also dissolved in OPTI-MEM® media. The MC solutions were exposed to 5 hours of UV radiation (377 nm). The propidium iodide solution was exposed to 5 hours of UV radiation (530 nm).

Data set [6] is described as follows: Photophysical properties of the metallacrowns in solid state and in aqueous solutions. In kind it is physicochemical.
Setting [7] is: 150 μM, 15 minutes, UV light (377 nm) 8 minutes, further 1 hour.

For `O=C([N-][O-])c1cnccn1.O=C([N-][O-])c1cnccn1.O=C([N-][O-])c1cnccn1.O=C([N-][O-])c1cnccn1.O=C([N-][O-])c1cnccn1.O=C([N-][O-])c1cnccn1.O=C([N-][O-])c1cnccn1.O=C([N-][O-])c1cnccn1.O=C([N-][O-])c1cnccn1.O=C([N-][O-])c1cnccn1.O=C([N-][O-])c1cnccn1.O=C([N-][O-])c1cnccn1.O=C([N-][O-])c1cnccn1.O=C([N-][O-])c1cnccn1.O=C([N-][O-])c1cnccn1.O=C([N-][O-])c1cnccn1.O=S(=O)([O-])C(F)(F)F.O=S(=O)([O-])C(F)(F)F.O=S(=O)([O-])C(F)(F)F.[Yb+3].[Zn+2].[Zn+2].[Zn+2].[Zn+2].[Zn+2].[Zn+2].[Zn+2].[Zn+2].[Zn+2].[Zn+2].[Zn+2].[Zn+2].[Zn+2].[Zn+2].[Zn+2].[Zn+2].c1ccncc1.c1ccncc1.c1ccncc1.c1ccncc1.c1ccncc1.c1ccncc1.c1ccncc1.c1ccncc1` [Yb^3+[Zn(II)MCpyzHA]], the “Biomolecular profile of fixed HeLa cells compared with PFA and methanol fixation (Raman)” value with HeLa cells [1] is on record as “very similar biomolecular profiles”. For the same compound, the “Intracellular location (confocal, visible ligand emission)” value in the data set with MSC stem cells is “specifically located in nucleus as well as in cytoplasm”. In addition, in the data set with HeLa cells [2] (45 μM, 15 minutes, no UV light exposure (also 150 μM, 12 hours)), the “Selectivity of labelling for necrotic cells” value is recorded as “going exclusively in necrotic cells”. The “Specificity of the dye for cell state” value in the data set with HeLa cells [2] (150 μM complex and 3 μM propidium iodide together, UV light (377 nm) 5 minutes) was “specific for dead and apoptotic cells”. Moreover, in the data set with HeLa cells [2] (setting [7]), the “NIR staining of fixed HeLa cancer cells (cell compartments)” value is recorded as “operates as a NIR stain for the nucleus as well as for the cytoplasm”. Further, in the data set with HeLa cells [2] (150 μM, 15 minutes, UV light (377 nm) 8 minutes, further 1 hour, imaged one month later), the “Shape and morphology of stained and fixed cells one month after the procedure” value is “maintained the same shape and morphology”. In addition, the “Colocalization with propidium iodide” value in the data set with HeLa cells [2] (setting [7]) was “colocalize in the same cell compartments”; in the data set on HeLa cells [2] (150 μM, 12 hours, no UV light) it was “colocalize in the same cell compartment”. Also, in the data set with HeLa cells [2] (150 μM, incubation during 12 hours, no UV light exposure), the “Toxicity to the HeLa cell line” value is given as “toxic”. The “Function in MSC cells” value in data set [3] is “acting as an NIR dye and cell fixative”. Further, the “Incubation time after which emission was observed in cells after UV illumination” value in the data set with HeLa cells [4] is recorded as 20 min. In addition, the Photostability entry in data set [5] is on record as “fully photostable”. Also, the “τ (luminescence lifetime), D2O” value in data set [6] (200 μM in D2O, room temperature, excitation at 355 nm) is 81.3(1) μs. Besides, the “τ (luminescence lifetime), H2O” value in data set [6] (200 μM in H2O, room temperature, excitation at 355 nm) is reported as 5.57(1) μs. The “q (number of coordinated water molecules)” value in data set [6] (calculated from lifetimes, estimated error ±0.2) was 0. Further, in data set [6] (solid state, room temperature, excitation at 355 nm), the “τ (luminescence lifetime), Solid” value is recorded as 45.6(3) μs.
